Converted amounts (≈) assume the structure as drawn.
Legend:
Enterococcus faecium = assay: Antibacterial activity against vancomycin-resistant Enterococcus faecium 628016.; assay type: functional
Enterococcus faecalis = assay: Antibacterial activity against vancomycin-sensitive Enterococcus faecalis 683026.; assay type: functional
Staphylococcus aureus [1] = assay: Antibacterial activity against methicillin-resistant Staphylococcus aureus 601053.; assay type: functional
Staphylococcus aureus [2] = assay: Antibacterial activity against methicillin-resistant Staphylococcus aureus 607004.; assay type: functional
Staphylococcus aureus [3] = assay: Antibacterial activity against methicillin-sensitive Staphylococcus aureus 601055.; assay type: functional
Staphylococcus aureus [4] = assay: Antibacterial activity against methicillin-sensitive Staphylococcus aureus 601055.(grown in the presence of blood); assay type: functional
Streptococcus pneumoniae = assay: Antibacterial activity against penicillin-resistant Streptococcus pneumoniae 671319; assay type: functional
[5] = test system: Staphylococcus haemolyticus; assay: Antibacterial activity against methicillin-resistant Staphylococcus haemolyticus 601117; assay type: functional
[6] = In vitro binding affinity towards PBP2'' of Staphylococcus aureus using [14C]benzylpenicillin as radioligand
Staphylococcus aureus [7] = assay: Compound was tested for its binding affinity against PBP2' receptor in Staphylococcus aureus.; assay type: functional, organism-based
Staphylococcus aureus [8] = assay: Compound was tested for its binding affinity against PBP2'' receptor in Staphylococcus aureus. Values taken from literature.; assay type: functional
Staphylococcus aureus [9] = assay: Compound was tested for its antibacterial activity against methicillin-resistant Staphylococcus aureus.; assay type: functional

## C[C@@H](O)[C@H]1C(=O)N2C(C(=O)O)=C(CSc3ccc4ccccc4n3)[C@H](C)[C@H]12
Enterococcus faecium
  MIC: 1 µg/mL (≈ 2.6 µM)
Enterococcus faecalis
  MIC: 4 µg/mL (≈ 10.4 µM)
Staphylococcus aureus [1]
  MIC: 0.13 µg/mL (≈ 0.338 µM)
Staphylococcus aureus [2]
  MIC: 4 µg/mL (≈ 10.4 µM)
Staphylococcus aureus [3]
  MIC: 0.016 µg/mL (≈ 0.0416 µM)
Staphylococcus aureus [4]
  MIC: 0.03 µg/mL
Streptococcus pneumoniae
  MIC: 0.06 µg/mL (≈ 0.156 µM)
[5]
  MIC: 0.5 µg/mL (≈ 1.3 µM)

## Cc1nc2ccc(SCC3=C(C(=O)O)N4C(=O)[C@H]([C@@H](C)O)[C@H]4[C@H]3C)cc2s1
Enterococcus faecium
  MIC: 8 µg/mL (≈ 19.8 µM)
Enterococcus faecalis
  MIC: 2 µg/mL (≈ 4.94 µM)
Staphylococcus aureus [1]
  MIC: 2 µg/mL (≈ 4.94 µM)
Staphylococcus aureus [2]
  MIC: 4 µg/mL (≈ 9.89 µM)
Staphylococcus aureus [3]
  MIC: 0.03 µg/mL (≈ 0.0742 µM)
Staphylococcus aureus [4]
  MIC: 0.016 µg/mL
Streptococcus pneumoniae
  MIC: 0.06 µg/mL (≈ 0.148 µM)
[5]
  MIC: 4 µg/mL (≈ 9.89 µM)

## C[C@@H](O)[C@H]1C(=O)N2C(C(=O)[O-])=C(COc3ccc4cc(Cn5cc[n+](C)c5)ccc4c3)[C@H](C)[C@H]12
Enterococcus faecium
  MIC: 2 µg/mL (≈ 4.33 µM)
Enterococcus faecalis
  MIC: 2 µg/mL (≈ 4.33 µM)
Staphylococcus aureus [1]
  MIC: 0.5 µg/mL (≈ 1.08 µM)
Staphylococcus aureus [2]
  MIC: 1 µg/mL (≈ 2.17 µM)
Staphylococcus aureus [3]
  MIC: 0.016 µg/mL (≈ 0.0347 µM)
Staphylococcus aureus [4]
  MIC: 0.016 µg/mL
Streptococcus pneumoniae
  MIC: 0.06 µg/mL (≈ 0.13 µM)
[5]
  MIC: 2 µg/mL (≈ 4.33 µM)

## C[C@@H](O)[C@H]1C(=O)N2C(C(=O)O)=C(COc3ccc4ccccc4c3)[C@H](C)[C@H]12
Enterococcus faecium
  MIC: 64 µg/mL (≈ 174 µM)
Enterococcus faecalis
  MIC: 128 µg/mL (≈ 348 µM)
Staphylococcus aureus [1]
  MIC: 0.25 µg/mL (≈ 0.68 µM)
Staphylococcus aureus [2]
  MIC: 4 µg/mL (≈ 10.9 µM)
Staphylococcus aureus [3]
  MIC: 0.016 µg/mL (≈ 0.0435 µM)
Staphylococcus aureus [4]
  MIC: 32 µg/mL
Streptococcus pneumoniae
  MIC: 4 µg/mL (≈ 10.9 µM)
[5]
  MIC: 2 µg/mL (≈ 5.44 µM)

## C[C@@H](O)[C@H]1C(=O)N2C(C(=O)O)=C(Sc3ccc4ccccc4c3)[C@H](C)[C@H]12
Enterococcus faecium
  MIC: 8 µg/mL (≈ 21.7 µM)
Enterococcus faecalis
  MIC: 16 µg/mL (≈ 43.3 µM)
Staphylococcus aureus [1]
  MIC: 1 µg/mL (≈ 2.71 µM)
Staphylococcus aureus [2]
  MIC: 8 µg/mL (≈ 21.7 µM)
Staphylococcus aureus [3]
  MIC: 0.03 µg/mL (≈ 0.0812 µM)
Staphylococcus aureus [4]
  MIC: 0.03 µg/mL
Streptococcus pneumoniae
  MIC: 2 µg/mL (≈ 5.41 µM)
[5]
  MIC: 8 µg/mL (≈ 21.7 µM)

## C[C@@H](O)[C@H]1C(=O)N2C(C(=O)O)=C(SCCNC=N)C[C@H]12 [IMIPENEM ANHYDROUS]
Enterococcus faecium
  MIC: 4 µg/mL (≈ 13.4 µM)
Enterococcus faecalis
  MIC: 2 µg/mL (≈ 6.68 µM)
[6]
  IC50: 430 µg/mL (≈ 1440 µM)
Staphylococcus aureus [7]
  IC50: 430 µg/mL (≈ 1440 µM)
Staphylococcus aureus [8]
  IC50: 220 µg/mL (≈ 735 µM)
Staphylococcus aureus [1]
  MIC: 8 µg/mL (≈ 26.7 µM)
Staphylococcus aureus [2]
  MIC: 64 µg/mL (≈ 214 µM)
Staphylococcus aureus [3]
  MIC: 0.03 µg/mL (≈ 0.1 µM)
Staphylococcus aureus [4]
  MIC: 0.015 µg/mL
Staphylococcus aureus [9]
  MIC: 128 µg/mL (≈ 428 µM)
Streptococcus pneumoniae
  MIC: 0.12 µg/mL (≈ 0.401 µM)
[5]
  MIC: 64 µg/mL (≈ 214 µM)

## C[C@@H](O)[C@H]1C(=O)N2C(C(=O)O)=C(CSc3ccc4c(c3)CC(=O)N4C)[C@H](C)[C@H]12
Enterococcus faecium
  MIC: 8 µg/mL (≈ 19.9 µM)
Enterococcus faecalis
  MIC: 4 µg/mL (≈ 9.94 µM)
Staphylococcus aureus [1]
  MIC: 4 µg/mL (≈ 9.94 µM)
Staphylococcus aureus [2]
  MIC: 8 µg/mL (≈ 19.9 µM)
Staphylococcus aureus [3]
  MIC: 0.12 µg/mL (≈ 0.298 µM)
Staphylococcus aureus [4]
  MIC: 0.06 µg/mL
Streptococcus pneumoniae
  MIC: 0.25 µg/mL (≈ 0.621 µM)
[5]
  MIC: 16 µg/mL (≈ 39.8 µM)

## C[C@@H](O)[C@H]1C(=O)N2C(C(=O)O)=C(Sc3cccc4ccccc34)[C@H](C)[C@H]12
Enterococcus faecium
  MIC: 32 µg/mL (≈ 86.6 µM)
Enterococcus faecalis
  MIC: 16 µg/mL (≈ 43.3 µM)
Staphylococcus aureus [1]
  MIC: 1 µg/mL (≈ 2.71 µM)
Staphylococcus aureus [2]
  MIC: 8 µg/mL (≈ 21.7 µM)
Staphylococcus aureus [3]
  MIC: 0.06 µg/mL (≈ 0.162 µM)
Staphylococcus aureus [4]
  MIC: 0.06 µg/mL
Streptococcus pneumoniae
  MIC: 1 µg/mL (≈ 2.71 µM)
[5]
  MIC: 8 µg/mL (≈ 21.7 µM)

## C[C@@H](O)[C@H]1C(=O)N2C(C(=O)O)=C(COc3cccc4c3CCC4=O)[C@H](C)[C@H]12
Enterococcus faecium
  MIC: 2 µg/mL (≈ 5.39 µM)
Enterococcus faecalis
  MIC: 1 µg/mL (≈ 2.69 µM)
Staphylococcus aureus [1]
  MIC: 0.12 µg/mL (≈ 0.323 µM)
Staphylococcus aureus [2]
  MIC: 4 µg/mL (≈ 10.8 µM)
Staphylococcus aureus [3]
  MIC: 0.016 µg/mL (≈ 0.0431 µM)
Staphylococcus aureus [4]
  MIC: 0.008 µg/mL
Streptococcus pneumoniae
  MIC: 0.06 µg/mL (≈ 0.162 µM)
[5]
  MIC: 8 µg/mL (≈ 21.5 µM)

## C[C@@H](O)[C@H]1C(=O)N2C(C(=O)O)=C(COc3ccc4occ(CN(C)C)c(=O)c4c3)[C@H](C)[C@H]12
Enterococcus faecium
  MIC: 2 µg/mL (≈ 4.52 µM)
Enterococcus faecalis
  MIC: 0.5 µg/mL (≈ 1.13 µM)
Staphylococcus aureus [1]
  MIC: 0.5 µg/mL (≈ 1.13 µM)
Staphylococcus aureus [2]
  MIC: 4 µg/mL (≈ 9.04 µM)
Staphylococcus aureus [3]
  MIC: 0.06 µg/mL (≈ 0.136 µM)
Staphylococcus aureus [4]
  MIC: 0.016 µg/mL
Streptococcus pneumoniae
  MIC: 0.12 µg/mL (≈ 0.271 µM)
[5]
  MIC: 2 µg/mL (≈ 4.52 µM)

## C[C@@H](O)[C@H]1C(=O)N2C(C(=O)O)=C(COc3ccc4occc(=O)c4c3)[C@H](C)[C@H]12
Enterococcus faecium
  MIC: 2 µg/mL (≈ 5.19 µM)
Enterococcus faecalis
  MIC: 2 µg/mL (≈ 5.19 µM)
Staphylococcus aureus [1]
  MIC: 0.25 µg/mL (≈ 0.649 µM)
Staphylococcus aureus [2]
  MIC: 2 µg/mL (≈ 5.19 µM)
Staphylococcus aureus [3]
  MIC: 0.016 µg/mL (≈ 0.0415 µM)
Staphylococcus aureus [4]
  MIC: 0.016 µg/mL
Streptococcus pneumoniae
  MIC: 0.03 µg/mL (≈ 0.0778 µM)
[5]
  MIC: 2 µg/mL (≈ 5.19 µM)

## C[C@@H](O)[C@H]1C(=O)N2C(C(=O)O)=C(CSc3ccc4ccccc4c3)[C@H](C)[C@H]12
Enterococcus faecium
  MIC: 128 µg/mL (≈ 334 µM)
Enterococcus faecalis
  MIC: 128 µg/mL (≈ 334 µM)
Staphylococcus aureus [1]
  MIC: 0.5 µg/mL (≈ 1.3 µM)
Staphylococcus aureus [2]
  MIC: 4 µg/mL (≈ 10.4 µM)
Staphylococcus aureus [3]
  MIC: 0.016 µg/mL (≈ 0.0417 µM)
Staphylococcus aureus [4]
  MIC: 32 µg/mL
Streptococcus pneumoniae
  MIC: 1 µg/mL (≈ 2.61 µM)
[5]
  MIC: 2 µg/mL (≈ 5.22 µM)
